Tests used:
PGE2 = PGE2 ELISA after LPS; type: cell-based
Experimental: The production of TNF-α was measured with a commercial ELISA kit from R&D Systems. The PGE2 release was measured with a commercial ELISA kit from Cayman Chemical Company.
Neuron-glia cultures were pretreated for 30 min with MMT (3 μM) or vehicle before LPS stimulation. […] Production of superoxide (30 min after LPS) and iROS (2 h after LPS) was decreased by MMT treatment (FIGS. 6A and 6B). […] The production of PGE2 in cultures pretreated with 3 and 10 μM MMT decreased by 23% and 27% respectively (FIG. 6E).

[1] = Glutamate and aspartate concentrations in supernatants of primary neuron-glia cultures; type: cell-based; details: vehicle, 10 μM MMT, LPS 5 ng/ml, MMT plus LPS
Experimental: Primary neuron-glia cultures seeded in 24-well plates at a density of 5×10^5 cells/well for 7 days. Then, the cultures were treated with vehicle, 10 μM MMT, LPS 5 ng/ml, and MMT 10 μM and LPS 5 ng/ml, and supernatants derived from the primary neuron-glia cultures at indicated time points.
To determine the possibility that NMDA receptors might play a role in our mixed neuron/glia cultures in MMT-elicited neuroprotection, this invention determine the concentrations of excitatory amino acid, glutamate and aspartate in the supernatant of cultures after LPS treatment. Several authors reported the release of excitatory amino acid release from microglia by higher concentration of LPS (100 ng/ml). However, the concentration of glutamate released was limited to 10-20 μM, which may not be in sufficient concentrations to produce significant neuronal death (Obrenovitch et al. Excitotoxicity in neurological disorders--the glutamate paradox. Int J Dev Neurosci. 2000; 18:281-7.). In mixed neuron/glia cultures of this invention, with lower concentration of LPS (5 ng/ml) which was toxic to DA neurons, this invention could not detect any increases in both glutamate and aspartate (FIG. 13).

DA neurons = experiment: MPP+-induced reduction in DA uptake in neuron-enriched cultures; type: cell-based; details: MMT 1, 3, or 10 μM pre-treatment
Experimental: Mesencephalic neuron-glia cultures were seeded (5×10^5/well) in 24 well plates precoated with poly D-lysine. Thirty-six hours postseeding, 5-10 μM cytosine β-D-arabinofuranoside was added to the culture. After 2 days, the cytosine β-D-arabinofuranoside was removed and replaced with fresh media. Neuron-enriched cultures are 98% pure, as indicated by ICC staining with OX-42 and GFAP antibodies. Neuron-enriched cultures were treated 7 days post-seeding. For microglia add-back cultures, the microglia were plated on top of the neuron-enriched culture at 6 days postseeding, resulting in the addition of either 10% (500 μL of 1×10^5) or 20% (500 μL of 2×10^5) microglia. […]
Cells were incubated in Krebs-Ringer buffer (16 mM NaH2PO4, 1.2 mM MgSO4, 1.3 mM EDTA, […], for 21 min at 37° C. with 1 μM [^3H] DA. Nonspecific uptake was blocked for DA with 10 μM mazindole. After incubation, cells were washed three times with 1 mL/well of ice-cold Krebs-Ringer buffer. Cells were then lysed with 0.5 mL/well of 1 N NaOH and mixed with 15 mL of scintillation fluid. Radioactivity was measured on a scintillation counter, where specific [^3H] DA uptake was calculated by subtracting the mazindole.
To determine whether the neuroprotective effect of MMT was dependent on the presence of glial cells, the effects of MMT on the neuron-enriched cultures were determined. […]

HAPI = experiment: MTT cell viability of HAPI cells with LPS; type: cell-based; details: MMT 10 uM, LPS 100 ng/ml, 48 hrs
Experimental: HAPI was seeded with 1*10^4/well in 96-well plate. Twenty-four hours later, it was treated with vehicle, MMT (10 uM), and LPS 100 ng/ml for 48 hrs. After adding MTT, cell viability was measured (FIG. 8A) and morphology (FIG. 8B) was examined by contrast microscope. Values are mean±SEM of three independent experiments. *p<0.05, compared with LPS.

gp 91 = molecular target: T1, gp 91 (Homo sapiens, UniProt P04839); experiment: Competition of [3H]-labeled naloxine binding; details: preliminary data
T1 sequence (P04839 1-570): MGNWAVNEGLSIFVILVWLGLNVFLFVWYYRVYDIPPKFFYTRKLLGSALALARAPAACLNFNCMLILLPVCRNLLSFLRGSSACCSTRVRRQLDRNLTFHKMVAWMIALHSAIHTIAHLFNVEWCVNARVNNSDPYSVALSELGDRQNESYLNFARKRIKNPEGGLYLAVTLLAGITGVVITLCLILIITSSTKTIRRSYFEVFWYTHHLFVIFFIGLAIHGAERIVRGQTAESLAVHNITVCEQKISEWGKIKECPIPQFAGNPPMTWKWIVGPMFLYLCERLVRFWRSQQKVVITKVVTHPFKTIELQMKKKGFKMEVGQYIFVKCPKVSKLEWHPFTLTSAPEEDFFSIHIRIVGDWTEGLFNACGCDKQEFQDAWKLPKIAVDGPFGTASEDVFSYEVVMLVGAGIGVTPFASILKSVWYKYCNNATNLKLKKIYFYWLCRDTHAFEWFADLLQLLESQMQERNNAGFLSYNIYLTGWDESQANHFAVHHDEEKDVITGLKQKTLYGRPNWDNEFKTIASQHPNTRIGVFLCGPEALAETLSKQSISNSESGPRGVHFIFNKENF
T1 sequence (P13498 1-195 partner): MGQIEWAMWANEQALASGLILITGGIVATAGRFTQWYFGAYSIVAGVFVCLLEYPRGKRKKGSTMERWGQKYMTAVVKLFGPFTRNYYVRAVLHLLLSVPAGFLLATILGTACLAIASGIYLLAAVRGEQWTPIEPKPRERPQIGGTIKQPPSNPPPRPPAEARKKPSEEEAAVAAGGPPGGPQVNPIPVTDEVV
From the text: Results from two sets of experiments support this conclusion. […] Thus, the failure for MMT to protect LPS-induced DA neurons toxicity in NADPH oxidase-deficient neuron/glia cultures implies a critical role of this enzyme in mediating the neuroprotective effect of MMT. The present invention determines the binding site of MMT in microglia.

CC12CC3CC(C)(C1)CC(N)(C3)C2.Cl [MMT, 1-amino-3,5-dimethyladamantane hydrochloride]
decrease of PGE2 production (PGE2; pretreated with 3 μM MMT): 23%
decrease of PGE2 production (PGE2; pretreated with 10 μM MMT): 27%
aspartate concentration in supernatant [1]: not obviously different
glutamate concentration in supernatant [1]: not obviously different
protection against MPP+-induced reduction in DA uptake (DA neurons): failed to protect
effect on apoptosis of activated microglia induced by LPS (MTT cell viability) (HAPI): lack of effect
competing the binding of [3H]-labeled naloxine (gp 91): effective in competing the binding

— patent US20150080475A1, “Memantine Protects Inflammation-Related Degeneration of Dopamine Neurons Through Inhibition of Over-Activated Microglia and Release of Neurotrophic Factors From Astroglia” (priority 2009, published 2015)
